According to patent US6008190A, “Cobalt Schiff base compounds” (California Institute of Technology, priority 1995, dated 1999):
Read-outs that look alike come from different tables or passages of the source. Where a SMILES comes first, the peptide text is derived from it. [ ]: non-standard residue; d: D form.

What was measured:
Human a-thrombin = target: T1, Human a-thrombin (Homo sapiens, UniProt P00734); test: Thrombin inhibition assay, Spectrozyme TH hydrolysis at 406 nm; type: biochemical; conditions: for activity relative to control / thrombin activity after incubation: 0.1 μM thrombin; for activity relative to control: 2.5 mM or similar concentration, 24 hours room temperature, Co(II) compound incubated under inert atmosphere then exposed to air; for thrombin activity after incubation: 2.5 mM, 24 hours at room temperature, assayed at 25° C.
T1 construct: Human a-thrombin and the assay agent Spectrozyme; purchased American Diagnostica (Greenwich, Conn.); host or cells: purified blood product
Procedure: FIG. 1 depicts the inhibition of thrombin. 3.07×10^-9 M thrombin at 25C was assayed using Spectrozyme TH (American Diagnostics), and the reaction followed at 406 nm using a Hewlett Packard HP8452A diode array spectrophotometer with temperature control. All assays were performed in 10 mM Tris, 10 mM HEPES, 0.1% polyethylene glycol, 0.5 M NaCl, pH 7.8. The Co(III) carboxypropyl(NH3)2 (labeled as Co(carboxypropyl)) was coupled to the active site directed peptide NH2 -GGGdFPR-CO-NIH SEQ ID NO: 1 (labeled as peptide dFPR). The observed inhibition greatly exceeded Co(carboxypropyl)(NH3) )2, the peptide, and Co(III)acacen(NH3)2 Cl (labeled as Co(acacen)).
N-(2-hydroxyethyl)piperazine-N'-2-ethanesulfonic acid (HEPES) was from J. T. Baker Phillipsburg, N.J.). Cobaltous acetate tetrahydrate was obtained from FM Science (Gibbstown, N.J.). Human a-thrombin and the assay agent Spectrozyme (H-D-hexahydrotyrosyl-L-alanyl-L-arginine-p-nitroaniline diacetate) were purchased from American Diagnostica (Greenwich, Conn.). Antithrombotic peptides were manufactured as amides by the Beckman Institute Biopolymer Synthesis group at Caltech using solid phase methods. […] was from Pharmacia (Uppsala, Sweden). Enzyme reactions were followed spectrophotometrically using a photodiode array spectrophotometer. Ultrafiltration materials were from Amicon (Beverly Mass.). HPLC used Vydac reverse phase columns. ^1 H NMR were obtained on a 300 MHz FT-NMR spectrometer. Solvents used include EM Omnisolve MeOH, Omnisolve […] passed over basic alumina to remove residual acid, Fluka (Bubcs. Switzerland) puriss. MeOH and dioxane, and Quantum Chemical (Tuscola, Ill.) absolute EtOH. Distilled water was prepared by a Barnistead Nanopure system. All other solvents were reagent trade.
Thrombin inhibition assay: As with any purified blood product, proper care was taken to avoid the transmission of blood-borne pathogens. Thrombin was taken as received (about 1 ml, at 30 μM in 0.75 M sodium chloride storage solution) and divided into 100 μL aliquots. Each aliquot was diluted to 10 ml. using clean. filtered (2 μm) aqueous 0.75 M NaCl and divided into 1 mL samples. Each sample was stored frozen at -80° C. until ready for use. The protein should not be stored at -20 ° C. as this is too close to the cutectic point for the thrombin-salt mixture and freeze-thaw cycling may damage the protein.
An assay buffer containing 10 mM Tris, 10 mM HEPES, 0.1% polyethylene glycol (PEG 8000) and 500 mM sodium chloride was prepared to pH 8. Following manufacturer's instructions, 5 ,μmole Spectrozyme TH was dissolved in 1.000 mL filtered nanopure water. A series of [Co^III (acacen)(NH3)2 ]Cl solutions was prepared by dissolving 16.6 mg of the compound in 0.75M NaCl and then diluting aliquots to a range of cobalt concentrations from 4.7 mM to 4.7 nM. Both of the purified materials were assayed.
Thrombin was preincubated with inhibitor in the kinetics buffer (total volume of thrombin, buffer, and inhibitor of […]) for the times specified in FIG. 1. After incubation, the substrate, spectrozyme TH was added (8 mL of 5 mM spectrozyme), and the thrombin-catalyzed hydrolysis rates were monitored at 406 nm. The final concentration of thrombin in the experiments was 3 nM, and the concentration of substrate was […]. The inhibitor concentrations are outlined in FIG. 1. The rates of hydrolysis were determined from the linear portion of the saturation-kinetics plots. The percent activity is determined by dividing the rate of spectrozyme hydrolysis with inhibitor by the rate of hydrolysis without inhibitor and multiplying by 100.
A vial of thrombin prepared as above was thawed in warm water. 100 μL aliquots were added to 100 μL, samples of the cobalt acacen solutions. One 100 μL aliquot of thrombin solution was diluted with 100 μL 0.75M NaCl to be used as a control. Samples were incubated as needed before assay. […]

[1] = target: T2, Bovine carbonic anhydrase (Bos taurus, UniProt P00921); test: Inhibition of carbonic anhydrase, p-nitrophenylacetate substrate; type: biochemical; conditions: for % inhibition of CA: inert atmosphere, Tris pH 8
T2 construct: purchased Calbiochem
Procedure: Bovine carbonic anhydrase (20 mg 6.7×10^-7 mol, Calbiochem) was dissolved in 0.5 mL Tris buffer (pH=8, 0.05 M). To this solution was added 30 mg of Co(II)hydroxypropyl acacen (30 mg, 7.6×10^-5 mol) dissolved in 0.5 mL of H2 O. This solution was incubated for 48 hours. The excess cobalt complex was separated from the protein using a PD-10 gel filtration column equilibrated with Tris buffer (pH 8, 0.05 M). This enzyme, which was incubated with the Co(III) complex, retained 100% of its activity.
Two samples of bovine carbonic anhydrase (30 mg, 1×10^-6 mol) were dissolved in 3 mL of degassed Tris buffer (pH 8, 0.05 M). To one of the samples was added Co(II)hydroxypropyl acacen (30 mg, 9×10^-5mol). The other sample of bovine carbonic anhydrase served as the control. The solutions were incubated under inert atmosphere (glove box) and a 1 mL aliquot was removed from each sample after 48 and 96 hours of incubation. The protein was then exposed to air and the excess Co(II)hydroxypropyl acacen separated from the protein using a PD-10 gel filtration column (Pharmacia) equilibrated with Tris buffer (pH 8, 0.05 M). The enzymatic activity of the protein was assayed using p-nitroplhenylacetate as the substrate (Pocker et al., Biochem. 6:668-678 (1967)).

thrombin = thrombin (Homo sapiens, UniProt P00734); conditions: initial estimate for two separate samples
Procedure: The [Co(III)acacen(NH3)2 ]CI experiments were repeated for a range of cobalt concentrations from 2.4 mM to 2.4 nM after at 12 hour incubation at 25C.

Thermolysin [2] = target: T3, Thermolysin (Bacillus thermoproteolyticus, UniProt P00800); conditions: incubated with 5 mM inhibitor, HEPES pH 7.0, thermolysin 5×10^-8 M, cobalt inhibitor 1.25×10^-5 M
Procedure: Thermolysin (2,500,000 units, Calbiochem) was dissolved in 20 mL of Tris buffer (pH 7.2, 0.1 M, 2.5 M NaBr. 0.01 M CaCI2) and stored at 4° C.; enzyme concentration was determined by using E1%^280 =7.65 and a molecular weight of 34,600. This solution was further purified using gel filtration chromatography on an FPLC Using a Superdex 75 column (Pharmacia) equilibrated with 0.1 M Tris, 0.1 M NaBr, 0.01 CaCI, pH 7.2. This stock solution was stored at 4C. N-[3-(2-furyl)acryloyl]glycyl L-leuciniamide (FAGLA) was obtained from Sigma as the thermolysin substrate. A stock solution of FAGLA (4.0 mM) was prepared by dissolving the substrate in dimethylforthamide (DMF) and diluting it with buffer to a final concentration of 0.1 M Tris, 0.1 NaBr and 10 mM CaCl2, pH 7.0 (final concentration of DMF was 2.5%; sec Feder et al., Biochem. 9:2784-2791 (1970)). For all assays, the concentration of enzyme and substrate was 50 nM and 2.0 mM respectively. The peptidase activity of thermolysin was determined by following the decrease in absorption at 346 due to the enzymatic hydrolysis of FAGLA. Initial velocities were determined for ≤10% of the reaction.
Thermolysin (2×10^-5 mol) was incubated with [Co(III)acacen(NH3)2 ]Cl (5 mM) in HEPES buffer (pH 7.0, 0.01 M, 0.005 M CaCl2).
Stock solution of thermolysin was mixed with the cobalt compound dissolved in 0.1 M Tris, 0.1 M NaBr, 0.01 CaCl2, pH 7.2 (run buffer) to yield a final enzyme concentration of […] and a cobalt concentration of 2.5 mM. These solutions were incubated at 25C or 37C for several hours along with a control lacking cobalt compound. Periodically […] aliquots of these solutions were assayed for residual enzyme activity by their addition to a cuvette contain […] of FAGLA stock Solution, and following the absorption decrease at 346 nm as described above. All enzyme assays were performed at 25C.

[3] = Axial ligand exchange of ammonia for imidazole; type: physicochemical; conditions: in water with excess imidazole, 25° C.
Description: In a preferred embodiment, the cobalt compounds find use in the inhibition of proteins and enzymes of tumor cells. As outlined above, Co(III) "acacen" compounds can exchange an axial ligand for a different one by a dissociative mechanism with the slow loss of one axial ligand to form a five coordinate intermediate, followed by binding to another suitable ligand. For most cobalt complexes, ligand exchange is a slow process because there is a large loss of ligand field stabilization energy when a ligand is removed from an octahedral d^6 complex (see Huheey et al., Inorganic Chemistry: Principles of Structure and Reactivity, 4th Ed. HarperCollins. N.Y., chapter 13). Generally, the exchange is slow; for example, [Co(III)(acacen)(NH3)2 ]Cl in water with excess imidazole exchanges ammonia for imidazole with a half-life under an hour at 25° C., with the rate of exchange increasing with temperature. However, reduction to cobalt(II) puts an electron into the antibonding dz2 orbital, labilizing the axial ligands. Typical one-electronic reduction potentials with irreversible loss of an axial ligand are around -360 mV vs NHE, (Darbieu et al., Transition Met. Chem., 7:149 (1982)). This property may be exploited as a "redox switch" to control the activity of the cobalt compound. […]

Thermolysin [4] = target: T3, Thermolysin
Description: The resulting solution was transferred into the Tris running buffer using a PD-10 column (Pharmacia), and was characterized.

T3 sequence (P00800 233-548): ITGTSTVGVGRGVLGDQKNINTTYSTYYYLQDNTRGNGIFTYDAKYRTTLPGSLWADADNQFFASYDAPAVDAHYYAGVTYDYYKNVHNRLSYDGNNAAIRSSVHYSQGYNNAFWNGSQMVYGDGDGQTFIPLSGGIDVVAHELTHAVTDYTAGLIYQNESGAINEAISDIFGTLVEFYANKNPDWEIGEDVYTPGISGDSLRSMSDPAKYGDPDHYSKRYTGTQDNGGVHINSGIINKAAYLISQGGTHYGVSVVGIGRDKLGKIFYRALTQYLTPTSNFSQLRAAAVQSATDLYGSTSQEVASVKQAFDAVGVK
T2 sequence (P00921 whole entry): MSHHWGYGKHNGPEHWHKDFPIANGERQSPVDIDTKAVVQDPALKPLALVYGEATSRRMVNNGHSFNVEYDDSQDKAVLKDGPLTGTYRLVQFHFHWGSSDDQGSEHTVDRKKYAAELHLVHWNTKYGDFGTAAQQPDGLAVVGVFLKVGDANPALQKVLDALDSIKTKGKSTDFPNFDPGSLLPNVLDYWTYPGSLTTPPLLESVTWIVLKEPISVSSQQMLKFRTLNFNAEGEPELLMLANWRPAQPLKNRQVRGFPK

Co(II)hydroxypropyl acacen
activity relative to control (Human a-thrombin): 42%
% inhibition of CA ([1]; 48 hours incubation): 33.8%
% inhibition of CA ([1]; 96 hours incubation): 43.2%

N=C(N)NCCC[C@H](NC(=O)[C@@H]1CCCN1C(=O)[C@@H](Cc1ccccc1)NC(=O)CNC(=O)CNC(=O)CN)C(N)=O [(Gly)3 dPhePioArg, reference compound] (H-GGG[dF]PR-NH2)
Ki (Human a-thrombin): ~209 µM

[Co(III)hydroxypropylacacen(NH3)2 ]CH3 COO [Co(III) complex]
enzyme activity retained after incubation ([1]; incubated 48 hours, Tris buffer pH 8, excess complex removed by gel filtration): 100%

CC([O-])=CC(C)=NCCN=C(C)C=C(C)[O-].N.N.[Cl-].[Co+3] [[Co(III)acacen(NH3)2]Cl]
cobalts per enzyme (thrombin): 5-8
% inhibition (Thermolysin [2]; 45 minutes incubation): 46.2%
% inhibition (Thermolysin [2]; 190 minutes incubation): 63.9%
% inhibition (Thermolysin [2]; 322 minutes incubation): 77.7%
half-life of exchange of ammonia for imidazole [3]: under an hour
activity relative to control (Human a-thrombin): 0%
thrombin activity after incubation (Human a-thrombin): completely inactive
lowest cobalt concentration found to inhibit the protein (Human a-thrombin; range 2.4 mM to 2.4 nM, 12 hour incubation at 25C): 24 µM
inhibition at lower incubation temperature (Human a-thrombin; range of cobalt concentrations, 3 hours at 5C, activity determined at 25C): Partial inhibition
loss of enzyme activity due to irreversible inactivation by the cobalt complex (Thermolysin [4]; 5 mM cobalt complex, 10 μM thermolysin, overnight at 25C in presence of 50 μM phosphoramidon, after removal of the inhibitor): no detectable loss of enzyme activity
cobalt complexes bound to the enzyme (Thermolysin [4]; active enzyme, active site protected by phosphoramidon): two
equivalents of the cobalt compound bound for each enzyme molecule (Thermolysin [4]; thermolysin completely inactivated by the cobalt complex): three

CC(=O)C=C(C)NCCNC(C)=CC(C)=O [cobalt-free ligand, acetylacetone etlhylenediamine]
thrombin activity after incubation (Human a-thrombin): no effect
